Tests used:
Conditions in all cases: human
Hepatotoxicity [1] = test: FDA HLAED, serum glutamic oxaloacetic transaminase (SGOT) increase
Hepatotoxicity [2] = test: FDA HLAED, liver enzyme composite activity
Hepatotoxicity [3] = test: FDA HLAED, lactate dehydrogenase (LDH) increase
Hepatotoxicity [4] = test: FDA HLAED, alkaline phosphatase increase
Hepatotoxicity [5] = test: FDA HLAED, serum glutamic pyruvic transaminase (SGPT) increase
Hepatotoxicity [6] = test: FDA HLAED, gamma-glutamyl transferase (GGT) increase
Wherever GGT Increase - Index Value is given: reference of the scale not given here.
Wherever LDH Increase - Index Value is given: reference of the scale not given here.

CCN[C@H]1C[C@H](C)S(=O)(=O)c2sc(S(N)(=O)=O)cc21 [DORZOLAMIDE]
0.1: LDH Increase - Index Value (Hepatotoxicity [3]) | SGPT Increase - Index Value (Hepatotoxicity [5])
< 4: SGOT Increase - Number of Reports (Hepatotoxicity [1]) | LDH Increase - Number of Reports (Hepatotoxicity [3]) | Alkaline Phosphatase Increase - Number of Reports (Hepatotoxicity [4]) | SGPT Increase - Number of Reports (Hepatotoxicity [5]) | GGT Increase - Number of Reports (Hepatotoxicity [6])
Inactive: SGOT Increase - Activity Score (Hepatotoxicity [1]) | Composite Activity - Score (Hepatotoxicity [2]) | LDH Increase - Activity Score (Hepatotoxicity [3]) | Alkaline Phosphatase Increase - Activity Score (Hepatotoxicity [4]) | SGPT Increase - Activity Score (Hepatotoxicity [5]) | GGT Increase - Activity Score (Hepatotoxicity [6])
0.2: SGOT Increase - Index Value (Hepatotoxicity [1])
0: Composite Activity - Active (Hepatotoxicity [2]) | Composite Activity - Marginal (Hepatotoxicity [2]) | Alkaline Phosphatase Increase - Index Value (Hepatotoxicity [4]) | GGT Increase - Index Value (Hepatotoxicity [6])

COc1cc(CC2c3c(cc(OC)c(OC)c3OC)CC[N+]2(C)CCCOC(=O)CCC(=O)OCCC[N+]2(C)CCc3cc(OC)c(OC)c(OC)c3C2Cc2cc(OC)c(OC)c(OC)c2)cc(OC)c1OC.[Cl-].[Cl-] (configuration not stated) [DOXACURIUM CHLORIDE]
< 4: SGOT Increase - Number of Reports (Hepatotoxicity [1]) | LDH Increase - Number of Reports (Hepatotoxicity [3]) | Alkaline Phosphatase Increase - Number of Reports (Hepatotoxicity [4]) | SGPT Increase - Number of Reports (Hepatotoxicity [5]) | GGT Increase - Number of Reports (Hepatotoxicity [6])
0: SGOT Increase - Index Value (Hepatotoxicity [1]) | Composite Activity - Active (Hepatotoxicity [2]) | Composite Activity - Marginal (Hepatotoxicity [2]) | LDH Increase - Index Value (Hepatotoxicity [3]) | Alkaline Phosphatase Increase - Index Value (Hepatotoxicity [4]) | SGPT Increase - Index Value (Hepatotoxicity [5]) | GGT Increase - Index Value (Hepatotoxicity [6])
Inactive: SGOT Increase - Activity Score (Hepatotoxicity [1]) | Composite Activity - Score (Hepatotoxicity [2]) | LDH Increase - Activity Score (Hepatotoxicity [3]) | Alkaline Phosphatase Increase - Activity Score (Hepatotoxicity [4]) | SGPT Increase - Activity Score (Hepatotoxicity [5]) | GGT Increase - Activity Score (Hepatotoxicity [6])

COc1cc2nc(N3CCN(C(=O)C4COc5ccccc5O4)CC3)nc(N)c2cc1OC (configuration not stated) [DOXAZOSIN]
0.3: SGOT Increase - Index Value (Hepatotoxicity [1])
0: Composite Activity - Active (Hepatotoxicity [2]) | Composite Activity - Marginal (Hepatotoxicity [2])
>= 4: SGPT Increase - Number of Reports (Hepatotoxicity [5])
0.5: SGPT Increase - Index Value (Hepatotoxicity [5])
Inactive: SGOT Increase - Activity Score (Hepatotoxicity [1]) | Composite Activity - Score (Hepatotoxicity [2]) | LDH Increase - Activity Score (Hepatotoxicity [3]) | Alkaline Phosphatase Increase - Activity Score (Hepatotoxicity [4]) | SGPT Increase - Activity Score (Hepatotoxicity [5]) | GGT Increase - Activity Score (Hepatotoxicity [6])
0.2: LDH Increase - Index Value (Hepatotoxicity [3]) | Alkaline Phosphatase Increase - Index Value (Hepatotoxicity [4]) | GGT Increase - Index Value (Hepatotoxicity [6])
< 4: SGOT Increase - Number of Reports (Hepatotoxicity [1]) | LDH Increase - Number of Reports (Hepatotoxicity [3]) | Alkaline Phosphatase Increase - Number of Reports (Hepatotoxicity [4]) | GGT Increase - Number of Reports (Hepatotoxicity [6])

CCCCCc1cc(O)c2c(c1)OC(C)(C)[C@@H]1CCC(C)=C[C@@H]21 [DRONABINOL]
Inactive: SGOT Increase - Activity Score (Hepatotoxicity [1]) | Composite Activity - Score (Hepatotoxicity [2]) | LDH Increase - Activity Score (Hepatotoxicity [3]) | Alkaline Phosphatase Increase - Activity Score (Hepatotoxicity [4]) | SGPT Increase - Activity Score (Hepatotoxicity [5]) | GGT Increase - Activity Score (Hepatotoxicity [6])
0: SGOT Increase - Index Value (Hepatotoxicity [1]) | Composite Activity - Active (Hepatotoxicity [2]) | Composite Activity - Marginal (Hepatotoxicity [2]) | LDH Increase - Index Value (Hepatotoxicity [3]) | Alkaline Phosphatase Increase - Index Value (Hepatotoxicity [4]) | SGPT Increase - Index Value (Hepatotoxicity [5]) | GGT Increase - Index Value (Hepatotoxicity [6])
< 4: SGOT Increase - Number of Reports (Hepatotoxicity [1]) | LDH Increase - Number of Reports (Hepatotoxicity [3]) | Alkaline Phosphatase Increase - Number of Reports (Hepatotoxicity [4]) | SGPT Increase - Number of Reports (Hepatotoxicity [5]) | GGT Increase - Number of Reports (Hepatotoxicity [6])

Clc1ccc(COC(Cn2ccnc2)c2ccc(Cl)cc2Cl)cc1 (configuration not stated) [ECONAZOLE]
0: SGOT Increase - Index Value (Hepatotoxicity [1]) | Composite Activity - Active (Hepatotoxicity [2]) | Composite Activity - Marginal (Hepatotoxicity [2]) | LDH Increase - Index Value (Hepatotoxicity [3]) | Alkaline Phosphatase Increase - Index Value (Hepatotoxicity [4]) | SGPT Increase - Index Value (Hepatotoxicity [5]) | GGT Increase - Index Value (Hepatotoxicity [6])
< 4: SGOT Increase - Number of Reports (Hepatotoxicity [1]) | LDH Increase - Number of Reports (Hepatotoxicity [3]) | Alkaline Phosphatase Increase - Number of Reports (Hepatotoxicity [4]) | SGPT Increase - Number of Reports (Hepatotoxicity [5]) | GGT Increase - Number of Reports (Hepatotoxicity [6])
Inactive: SGOT Increase - Activity Score (Hepatotoxicity [1]) | Composite Activity - Score (Hepatotoxicity [2]) | LDH Increase - Activity Score (Hepatotoxicity [3]) | Alkaline Phosphatase Increase - Activity Score (Hepatotoxicity [4]) | SGPT Increase - Activity Score (Hepatotoxicity [5]) | GGT Increase - Activity Score (Hepatotoxicity [6])

COc1ccc(C(=O)Nc2ccccc2CCC2CCCCN2C)cc1 (configuration not stated) [ENCAINIDE]
4.1: LDH Increase - Index Value (Hepatotoxicity [3])
1: Composite Activity - Marginal (Hepatotoxicity [2])
3.6: Alkaline Phosphatase Increase - Index Value (Hepatotoxicity [4])
Inactive: GGT Increase - Activity Score (Hepatotoxicity [6])
3: Composite Activity - Active (Hepatotoxicity [2])
12.4: SGOT Increase - Index Value (Hepatotoxicity [1])
>= 4: SGOT Increase - Number of Reports (Hepatotoxicity [1]) | LDH Increase - Number of Reports (Hepatotoxicity [3]) | Alkaline Phosphatase Increase - Number of Reports (Hepatotoxicity [4]) | SGPT Increase - Number of Reports (Hepatotoxicity [5])
0: GGT Increase - Index Value (Hepatotoxicity [6])
Marginally Active: Alkaline Phosphatase Increase - Activity Score (Hepatotoxicity [4])
< 4: GGT Increase - Number of Reports (Hepatotoxicity [6])
7.7: SGPT Increase - Index Value (Hepatotoxicity [5])
Active: SGOT Increase - Activity Score (Hepatotoxicity [1]) | Composite Activity - Score (Hepatotoxicity [2]) | LDH Increase - Activity Score (Hepatotoxicity [3]) | SGPT Increase - Activity Score (Hepatotoxicity [5])

CCn1cc(C(=O)O)c(=O)c2cc(F)c(N3CCNCC3)nc21 [ENOXACIN]
Inactive: SGOT Increase - Activity Score (Hepatotoxicity [1]) | Composite Activity - Score (Hepatotoxicity [2]) | LDH Increase - Activity Score (Hepatotoxicity [3]) | Alkaline Phosphatase Increase - Activity Score (Hepatotoxicity [4]) | SGPT Increase - Activity Score (Hepatotoxicity [5]) | GGT Increase - Activity Score (Hepatotoxicity [6])
< 4: SGOT Increase - Number of Reports (Hepatotoxicity [1]) | LDH Increase - Number of Reports (Hepatotoxicity [3]) | Alkaline Phosphatase Increase - Number of Reports (Hepatotoxicity [4]) | SGPT Increase - Number of Reports (Hepatotoxicity [5]) | GGT Increase - Number of Reports (Hepatotoxicity [6])
0: SGOT Increase - Index Value (Hepatotoxicity [1]) | Composite Activity - Active (Hepatotoxicity [2]) | Composite Activity - Marginal (Hepatotoxicity [2]) | LDH Increase - Index Value (Hepatotoxicity [3]) | Alkaline Phosphatase Increase - Index Value (Hepatotoxicity [4]) | SGPT Increase - Index Value (Hepatotoxicity [5]) | GGT Increase - Index Value (Hepatotoxicity [6])

CCCCC[C@H](O)/C=C/[C@@H]1[C@H]2C/C(=C/CCCC(=O)O)O[C@H]2C[C@H]1O [EPOPROSTENOL]
0: SGOT Increase - Index Value (Hepatotoxicity [1]) | Composite Activity - Active (Hepatotoxicity [2]) | Composite Activity - Marginal (Hepatotoxicity [2]) | LDH Increase - Index Value (Hepatotoxicity [3]) | Alkaline Phosphatase Increase - Index Value (Hepatotoxicity [4]) | SGPT Increase - Index Value (Hepatotoxicity [5]) | GGT Increase - Index Value (Hepatotoxicity [6])
< 4: SGOT Increase - Number of Reports (Hepatotoxicity [1]) | LDH Increase - Number of Reports (Hepatotoxicity [3]) | Alkaline Phosphatase Increase - Number of Reports (Hepatotoxicity [4]) | SGPT Increase - Number of Reports (Hepatotoxicity [5]) | GGT Increase - Number of Reports (Hepatotoxicity [6])
Inactive: SGOT Increase - Activity Score (Hepatotoxicity [1]) | Composite Activity - Score (Hepatotoxicity [2]) | LDH Increase - Activity Score (Hepatotoxicity [3]) | Alkaline Phosphatase Increase - Activity Score (Hepatotoxicity [4]) | SGPT Increase - Activity Score (Hepatotoxicity [5]) | GGT Increase - Activity Score (Hepatotoxicity [6])

COC(=O)CCc1ccc(OCC(O)CNC(C)C)cc1 (configuration not stated) [ESMOLOL]
0: Composite Activity - Active (Hepatotoxicity [2]) | Composite Activity - Marginal (Hepatotoxicity [2]) | Alkaline Phosphatase Increase - Index Value (Hepatotoxicity [4]) | SGPT Increase - Index Value (Hepatotoxicity [5]) | GGT Increase - Index Value (Hepatotoxicity [6])
Inactive: SGOT Increase - Activity Score (Hepatotoxicity [1]) | Composite Activity - Score (Hepatotoxicity [2]) | LDH Increase - Activity Score (Hepatotoxicity [3]) | Alkaline Phosphatase Increase - Activity Score (Hepatotoxicity [4]) | SGPT Increase - Activity Score (Hepatotoxicity [5]) | GGT Increase - Activity Score (Hepatotoxicity [6])
< 4: SGOT Increase - Number of Reports (Hepatotoxicity [1]) | LDH Increase - Number of Reports (Hepatotoxicity [3]) | Alkaline Phosphatase Increase - Number of Reports (Hepatotoxicity [4]) | SGPT Increase - Number of Reports (Hepatotoxicity [5]) | GGT Increase - Number of Reports (Hepatotoxicity [6])
4.6: SGOT Increase - Index Value (Hepatotoxicity [1]) | LDH Increase - Index Value (Hepatotoxicity [3])

Source: ChEMBL document CHEMBL1697781, “Assessment of the health effects of chemicals in humans: II. Construction of an adverse effects database for QSAR modeling” (Curr Drug Discov Technol, 2004)
